Patent publication US20200368239A1, “TREATMENT OF AMYOTROPHIC LATERAL SCLEROSIS USING TRAMETINIB” (priority 2019, published 2020)

Columns and labels:
[1] = system: MEK1/2; assay: Western blot of pERKs and ERKs in mice whole brain lysates after oral administration; assay type: in vivo; conditions: wild type mice
Method: FIG. 2 provides a representative image of western blot analysis of pERKs and ERKs in mice whole brain lysates. ERKs were included as a loading control.
Cells and tissues were washed twice with ice-cold phosphate-buffered saline (PBS) and extracted by homogenizing with Ripa buffer (10 mM HEPES, 1.5 mM MgCl2, 10 mM KCl, 0.01 M DTT, protease inhibitors, pH 7.9). Lysates were centrifuged at 13,000 rpm for 20 min at 4° C. and the protein content in the supernatant was determined using Bradford assay (Bio-rad, Hercules, Calif.). Protein from each sample was subjected to 8%-15% SDS-PAGE, and the resolved proteins were transferred to nitrocellulose or polyvinylidene fluoride membrane. The membranes were blocked with 5% nonfat milk powder in Tris-buffered saline/Tween 20 (TBST) for 1 h at room temperature, then incubated with anti-phospho-ERK (Cell signaling), anti-ERK (Cell signaling), anti-LAMP1 (Abcam), anti-LC3 (Cell signaling), anti-cathepsin B (Cell signaling), anti-p62 (Cell signaling), anti-p62 (5114, Cell signaling), anti-phospho-mTOR (5536, Cell signaling), anti-mTOR (2983, Cell signaling), anti-phospho-ULK1 (14202, Cell signaling), anti-ULK1 (8054, Cell signaling), anti-TFEB (852501, Biolegend), and anti-GAPDH (Cell signaling) overnight at 4° C. […] The detected signals were quantified using a LAS-4000 system (Fuji Film, Tokyo, Japan).

[2] = system: mRNA expression in whole brain; assay: Bulk RNA-Seq of whole brains of wild type mice after oral administration; assay type: in vivo; conditions: FC ≥1.3, FDR <0.05
Method: To evaluate the transcriptional profiles in the brain, bulk RNA-Seq was performed using whole brains of wild type mice following oral administration of trametinib. Gene ontology terms were enriched at each weekly time point, indicating the relevance of cellular function such as synaptic potential, nervous system development, immune response, and incorrect protein folding in a temporal pattern (FIG. 3A). Decrease in MEK-ERK signaling with trametinib administration during week 1 and week 2 of administration can be indirectly confirmed through the decrease in expression of FGF receptor signaling and GPCR signaling related genes.
In the second week, we observed neuroblast proliferation-related and axon growth-related gene expression, followed by expression of genes for immune reaction and incorrect protein modification reaction in the third and fourth week, respectively. It is important to note that increase in the gene-sets associated with neurogenesis and the induction of lysosomal activity both occurred within the four-week period, as illustrated by the gene expression heatmap (FIGS. 4A-4B). […] Their FCs were between −2.26 and 3.71.
RNA was isolated from the mice whole brain and cDNA libraries for RNA sequencing were prepared using the TruSeq Stranded mRNA Prep Kit (Illumina, San Diego, Calif.) according to the manufacturer's guidelines (l). The libraries were sequenced on the Illumina Nextseq500 platform and the reads were mapped to the reference Mouse mm10 genome using Tophat v2.0.13. The total number of reads mapped to the transcriptomes were 24,532 genes and the genes with 0 count in at least one sample were removed before differential expression analysis. There was a total of 18,727 genes after the removal of genes with 0 count. To define differentially expressed genes (DEG), we set up a stringent statistic cutoff of fold change (FC) of ≥1.3 and a false discovery rate (FDR)<0.05. A total of 500 DEGs was identified between the vehicle-treated group and trametinib-treated group in the first week, 498 DEGs in the second week, 446 genes in the third week and 538 genes in the fourth week. Gene ontology was performed with Gene Ontology program of the gene ontology consortium. Heatmap analysis was performed by R studio using the DEG list related with synapse, neurogenesis and lysosome.

[3] = system: SOD1-G93A ALS model mice; assay: Survival of SOD1-G93A ALS model mice; assay type: in vivo; conditions: 0.1 or 0.2 mg/kg/day oral
Method: Therapeutic efficacy of trametinib was examined in the SOD1-G93A transgenic mouse model, the most widely used animal model for ALS research. The SOD1-G93A ALS model mice, TgN [B6SJL-Tg (SOD1-G93A) 1Gur], were purchased from Jackson Laboratory (ME, USA) and bred at 21±2° C., 35-65% RH.
In addition, immunohistochemical analysis was performed with the spinal cords of the mice to evaluate the efficacy of trametinib on the tissue, cellular, and molecular level.
After the onset of symptoms (around 16 weeks after birth), trametinib was orally administered to two groups of ALS model mice every day at the doses of 0.1 mg/kg or 0.2 mg/kg (mpk). As controls, wild type (WT) mice and ALS model mice were treated with vehicle.
Mice with motor performance score at or lower than 3 were euthanized as they were not able to feed themselves. Survival days for each group of mice were counted.

[4] = system: spinal cord neurons of SOD1-G93A ALS model mice; assay: Histological and immunohistochemical analysis of spinal cord of SOD1-G93A ALS model mice; assay type: in vivo; conditions: vs vehicle-treated ALS mice
Method: After the behavioral tests above were completed, the spinal cords of the euthanized mice were removed, fixed, and processed. The spinal cord tissue was sliced to a thickness of 10 μm with the CM1860 cryomicrotome (Leica Biosystems, Germany). Immunohistochemical analysis was performed using various staining methods to examine the spinal cord tissue, motor neurons, and protein expression in the motor neurons.
Through Nissl staining, the condition and distribution of neurons can be examined. Nissl staining solution contained 0.1% w/v Cresyl Violet (Sigma, C-5042, USA) and 0.1% v/v glacial acetic acid.
In order to examine the condition of the motor neurons, the spinal cord tissues were subjected to NeuN immunofluorescent staining to observe all types of neurons (red in FIG. 11) and SMI-32 staining (SMI-32 antibody binds specifically to motor neurons) to observe motor neurons (green in FIG. 11).
A longitudinal section of the spinal cord tissue was stained with tau antibody to examine the condition of the axonal nerve tract.
A cross-section of the spinal cord was stained with Tuj 1, an axonal marker, to examine the condition of axons in the tested mice.
MAP2 staining was performed to observe the condition of dendrites projecting out of the neurons.
(§1) Mice were perfused with ice-cold phosphate buffered saline (PBS) and followed by 4% paraformaldehyde (PFA). Spinal cords were dissected and analyzed by immunohistochemistry. For cryosections, spinal cords were prepared into sections of 10 μm slices. For immunostaining, the sections were incubated with anti-Map2 (Millipore, Burlington, Mass.), anti-Tuj 1 (Cell signaling, Danvers, Mass.), anti-SMI-32 (Biolegend, San Diego, Calif.), anti-LAMP1 (Abcam, Cambridge, UK), or anti-LC3 (Cell signaling) antibodies. This step was followed by incubation with Alexa Fluor 488-conjugated anti-mouse IgG (Thermo, Waltham, Mass.), Alexa Fluor 488-conjugated anti-rat IgG (Thermo), Alexa Fluor 555-conjugated anti-rabbit IgG secondary antibodies (Thermo). The sections were counterstained with DAPI. The immunofluorescent images were captured using a LSM700 Laser-Scanning confocal microscope (Carl Zeiss, Heildenheim, Germany). For Nissl staining, the sections were incubated with Nissl staining solution (0.1% w/v Cresyl Violet (Sigma, C-5042, USA) and 0.1% v/v glacial acetic acid). The length of the Map2 and Tuj 1 positive dendrites and axons were measured using Icy program. The LC3-LAMP1 co-localization was observed under a confocal microscopy using a LSM700 microscope (Carl Zeiss).

[5] = system: LAMP1 / LC3 in spinal cord of SOD1-G93A ALS model mice; assay: LC3 and LAMP1 immunofluorescence in spinal cord tissues (autophagosome-lysosome fusion); assay type: in vivo; conditions: vs vehicle-treated ALS model mice
Method: as §1

[6] = system: patients with ALS; assay: Phase 1/2a clinical trial in patients with ALS; assay type: in vivo, human
From the text: Patients are selected based on the following criteria for a sequential dose-escalation, randomized, active-controlled, phase ½a clinical trial to evaluate the safety, tolerability and efficacy of trametinib in patients with ALS.
Patients diagnosed as definite, probable or probable-laboratory-supported ALS according to El Escorial Criteria. Patients of less than 2 years after the onset of ALS. Patients who meet the criteria of K-ALSFRS-R score (total score of at least 30 and score of at least 2 for each item) and forced vital capacity (% FVC≥70%, or 60%≤% FVC<70% with K-ALSFRS-R score ≥3 for items 10 to 12).
Patients with primary lateral sclerosis, progressive muscular atrophy or lower motor neuron disease. […] Patients who have permanently ceased the administration of riluzole due to lack of tolerability and/or efficacy. […]
As primary outcome measures, safety and tolerability of trametinib is tested based on observation of adverse events. As secondary outcome measures, K-ALSFRS-R (Korean version of Amyotrophic Lateral Sclerosis Functional Rating Scale-Revised) scores are measured in the patients by independent outcome assessors. Additionally, change in forced vital capacity (FVC) from baseline, trough concentrations of trametinib in cerebrospinal fluid (CSF) and trough concentrations of trametinib in plasma are further measured.

[7] = in vivo; conditions: mouse, po, 0.8 mg/kg
Method: Trametinib (Medchemexpress, Monmouth Junction, N.J.) was micronized and suspended in the vehicle containing 5% mannitol, 1.5% hydroxypropyl methylcellulose and 0.2% sodium lauryl sulfate. For pharmacokinetic analysis, 0.05, 0.2 and 0.8 mg/kg of trametinib were orally administered in to 7-week-old normal mice (n=5 per group) as a single administration. Mice were sacrificed at each identical time points.

Structure (SMILES): CC(=O)Nc1cccc(-n2c(=O)n(C3CC3)c(=O)c3c(Nc4ccc(I)cc4F)n(C)c(=O)c(C)c32)c1 [Trametinib, acetamide, N-[3-[3-cyclopropyl-5-[(2-fluoro-4-iodophenyl)amino]-3,4,6,7-tetrahydro-6,8-dimethyl-2,4,7-trioxopyrido[4,3-d]pyrimidin-1(2H)-yl]phenyl]]
- pERK expression in the brain [1]: significant decrease in pERK expression
- number of differentially expressed genes (DEGs) vs vehicle-treated group ([2]; first week): 500
- number of differentially expressed genes (DEGs) vs vehicle-treated group ([2]; fourth week): 538
- number of differentially expressed genes (DEGs) vs vehicle-treated group ([2]; second week): 498
- number of differentially expressed genes (DEGs) vs vehicle-treated group ([2]; third week): 446
- survival compared to the vehicle-treated groups [3]: prolonged
- axon condition (Tuj 1 staining, cross-section) [4]: relatively well protected long axons
- axonal tract condition (tau staining, longitudinal section) [4]: reduced number of abnormal axonal spheroids
- dendrite condition (MAP2 staining) [4]: quite well protected
- motor neuron shape (SMI-32 and NeuN staining) [4]: elongated neurite shape was relatively well preserved
- number of neurons in spinal cord (Nissl staining) [4]: retained more neurons than the vehicle-treated group
- LAMP1 signal (lysosome marker) [5]: LAMP1 signal was restored
- fusion of lysosome and autophagosome (LC3-LAMP1 co-localization) [5]: restored as well
- symptoms associated with ALS in treated patients ([6]; 0.5, 1 or 2 mg trametinib): reduction of a behavioral, physiological and/or pathological symptom associated with ALS
- level of one or more markers after treatment ([6]; some patients): change in the level of one or markers
- Kp [7]: 0.477
